Assay results as given in US5668133A, “Ophthalmic compositions comprising emedastine and methods for their use” (priority 1995, dated 1997).

Experiments:
[1] = test system: passive anaphylaxis in guinea pig conjunctiva; test: passive conjunctival anaphylaxis, i.v. antigen challenge; type: in vivo
Method: Male Dunkin Hartley Viral Antibody Free outbred guinea pigs (Charles River Labs, Portage, Mich.), weighing approximately 250-350 grams (6/group) were injected intravenously (i.v.) via the marginal ear vein with 1.0 mL of Evans Blue dye (1.0 mg/mL). Forty-five (45) minutes post dye injection, 20 μL of test compound or saline vehicle was applied topically to one eye of each experimental animal. Thirty minutes following topical drug application, the guinea pigs were anesthetized and challenged subconjunctivally with histamine (300 ng/10 μL). Responses were quantitated as described by Yanni et al. in Int. Arch. Allergy Immunol., 101:102-106 (1993). Response scores from the treated groups were then compared with scores obtained in the saline-treated group using Dunnett's t test (Dunnett C. W., "A multiple comparison procedure for comparing treatments with a control." J. Am. Stat. Assoc. 50:1096-1121(1955)). Regression analysis was used to determine relative potency (Bliss, C. and E. Gjorgy. In Vitamin Methods, Vol. 2, pp. 445-610, Academic Press, Inc., New York, 1951.).
(§1) Emedastine difumarate was evaluated for its ability to inhibit a passive conjunctival immediate hypersensitivity response following topical ocular administration.
(§2) Guinea pigs (5-8/group) were passively sensitized with anti-ovalbumin serum injected subconjunctivally in one eye. Twenty-four hours after passive sensitization, ovalbumin (OA) was administered either i.v. or topically to the eye.
The allergic response following i.v. antigen challenge was assessed as follows: thirty minutes prior to challenge, animals received 20 μL of emedastine difumarate or saline applied topically to the eye. Guinea pigs were then challenged i.v. via the marginal ear vein with 1.0 mL of a solution containing 100 μg of OA and 1 mg of Evans Blue dye. Responses were quantitated as previously described in Example 2.

[2] = test system: passive anaphylaxis in guinea pig conjunctiva; test: passive conjunctival anaphylaxis, topical ocular antigen challenge, clinical scoring; type: in vivo
Method: as §1, §2
For assessment of the allergic response following topical ocular antigen challenge, 20 μL of ovalbumin (1.0 wt %) was administered to the sensitized eye 5 minutes after topical ocular application of emedastine difumarate or saline (20 μL). Thirty minutes later, the reaction was quantitated, using the following scoring scheme (maximum score per animal=10):
Congestion (refers to palpebral and bulbar conjunctiva):
3--Dark red conjunctiva; petechiae present
1--Any swelling on lower lid only
2--Swelling upper and lower lid, lids partially closed
3--Lids everted, very swollen, lids at least half closed
4--Swelling of both lids and side of face
1--Glazed, glassy appearance
2--Moist lids and surrounding hair
3--Moist lids and surrounding hair, thicker mucous-like

[3] = i.v. antigen challenge, 30 min before challenge
[4] = topical ocular antigen challenge, 5 min before challenge

CCOCCn1c(N2CCCN(C)CC2)nc2ccccc21 [Emedastine Difumarate, 1-(2-ethoxyethyl)-2-(4-methyl-1-homopiperazinyl)-benzimidazole]
reduction of the allergic response ([1]; 0.001% and 0.01% solutions, 30 minutes before i.v. antigen challenge): significant reductions of the allergic response
% Change ([1]; i.v. antigen challenge, 0.0001 wt %, 30 min before challenge): -41%
% Change ([1]; i.v. antigen challenge, 0.001 wt %, 30 min before challenge): -66%
% Change ([1]; i.v. antigen challenge, 0.01 wt %, 30 min before challenge): -96%
ED50 [1, 3]: 0.00022 wt %
ED50 (text) [1, 3]: 0.00022%
reduction in severity of the hypersensitivity response ([2]; 5 minutes before topical ocular antigen challenge): concentration-dependent reductions in the severity of the hypersensitivity response
attenuation of the hypersensitivity response ([2]; concentrations ranging from 0.0001% to 0.1%): Significant attenuation
% Change ([2]; topical ocular antigen challenge, 0.0001 wt %, 5 min before challenge): -29%
% Change ([2]; topical ocular antigen challenge, 0.001 wt %, 5 min before challenge): -45%
% Change ([2]; topical ocular antigen challenge, 0.01 wt %, 5 min before challenge): -51%
% Change ([2]; topical ocular antigen challenge, 0.1 wt %, 5 min before challenge): -67%
ED50 [2, 4]: 0.0046 wt %
ED50 (text) [2, 4]: 0.0046%
